Data taken from the pKa sets of Baltruschat and Czodrowski (2020).

Conditions: acidic group

SMILES | pKa
CCCO | 16
Cc1cc([N+](=O)[O-])ccc1NN=C(C#N)C#N | 5.5
Cc1cc(O)ccc1Cl | 9.4
OCc1ccc(O)c(CO)c1 | 9.77
O=CC1CCCC1=O (configuration not stated) | 5.83
C=CCc1ccc(O)c(OC)c1 | 10
CCOC(=O)Nc1nnc(-c2ccccc2)s1 | 8.2
CCC(=O)NBr | 8.2
O=P1(O)CCC1 | 3.07
O=[N+]([O-])C(CO)CO | 9.07
O=C([O-])/C=C\c1ccccc1O | 10.7
CC(C)(C)C(=O)NC(O)C(Cl)(Cl)Cl (configuration not stated) | 14.7
CCC(=O)CC(C)=O | 9.36
O=C(O)[C@@H](P)CC[C@H](P)C(=O)O | 3.62
CCNC(=O)CS | 8.14
CC1=CC(C)(C)SC(=S)N1 | 10.9
O=C(Cc1ccccc1)c1cc[n+](Cc2ccccc2)cc1 | 8.8
[O-]c1[nH+]c(O)c(Br)c[n+]1[C@H]1O[C@@H](CO)[C@H](O)[C@@H]1O | -0.9
C[NH+](C)Cc1cccc(NC(=O)/C=N/O)c1 | 8.28
O=C(O)/C=C\SC1CCCCC1 | 4.95
C#CCO | 13.3
CCCC(=O)NO | 9.48

SMILES | pKa
COc1cccc(NS(=O)(=O)c2ccccc2)c1 | 7.95
O=C(O)c1cc[nH]c1 | 4.98
CC1(C)OC(=O)C[C@H]2[C@@H](C(=O)O)[NH2+]C[C@H]21 | 2.27
O=[N+]([O-])c1ccc(S(=O)(=O)O)cc1 | -7.15
O=[N+]([O-])c1ccc(O)c(O)c1 | 6.74
CC1CC(C(=O)O)=[N+]([O-])C1(C)C (configuration not stated) | 2.85
COc1ccc(S(=O)(=O)Nc2ccccc2)cc1 | 8.66
N#CC(C#N)=C(C#N)NC(C#N)=C(C#N)C#N | 2.1
CCC(P)C(=O)O (configuration not stated) | 4.08
CC(C)(C)C(=O)NO | 9.59
O=C(O)CCc1ccc([N+](=O)[O-])cc1 | 4.54
O=C(O)c1csc(Br)c1 | 3.7
O=Cc1cccc(O)c1 | 8.86
C[NH+](C)CCc1ccc(O)cc1 | 9.46
Cc1cc(O)ccc1/N=N/c1ccc2c(c1)Cc1ccccc1-2 | 10.3
C[NH+](C)c1ccc(/C=C/c2cc[n+](O)cc2)cc1 | 1.05
O=C([O-])CN(CC(=O)O)Cc1cc(Cl)cc(C[NH+](CC(=O)[O-])CC(=O)O)c1O | 2.2
CC1=C(C)/C(=C(\C)C(=O)O)CC1=O | 3.1
N#CC(C#N)=NNc1ccccc1O | 6.1
Cc1ccc(O)c(C)c1 | 10.6
Cc1ccccc1B(O)O | 9.74
[S-]c1ccncc1 | 8.83

Second part, the compound after the results:

pKa | SMILES
4.6 | O=C(O)CCC(=O)NOCc1ccccc1
11.3 | COc1ccc(C(=S)Nc2ccccc2)cc1
3.37 | O=C(O)c1ccc(F)c([N+](=O)[O-])c1
1.9 | O=C(O)C#CBr
3.06 | CC(C)CCC([NH3+])C(=O)O (configuration not stated)
7.42 | O=[N+]([O-])c1cc(O)ccc1O
5.02 | CCC(C)(O)c1cnc(CC(C)C)c(O)[n+]1[O-] (configuration not stated)
11.2 | Cc1ccc(OC(O)(CBr)c2ccccc2)cc1 (configuration not stated)
10.8 | S=C(Nc1ccc(Cl)cc1)c1ccccc1
3.08 | O=[N+]([O-])c1ccc(-c2nnn[nH]2)cc1
14 | OCCO
3.4 | O=C(O)C1CCCCn2nnnc21 (configuration not stated)
2.67 | C/C=C/C#CC(=O)O
11.2 | O=C1CC(c2ccccc2)NC(=O)N1 (configuration not stated)
2.84 | Cc1ccc(Sc2ccc([N+](=O)[O-])cc2C(=O)O)cc1
7.31 | O=Cc1ccccc1B(O)O
10 | CNc1ncnc2nc[nH]c12
11 | [O-]c1cccc2c1-c1c(O)cccc1-2
12.7 | S=C(/N=N/c1ccc2ccccc2c1)NNc1ccc2ccccc2c1
11.1 | c1cnc2nc[nH]c2c1
9.6 | [O-]c1cc[nH+]cc1O
3.52 | Cc1cccc(SCC(=O)O)c1
11.9 | CCOC(=O)C1CCCCC1=O (configuration not stated)

pKa | SMILES
8.75 | CS(=O)c1cccc(O)c1 (configuration not stated)
11.6 | Cc1ccc(NC=S)cc1
6.31 | O=C(CC(=O)C(F)(F)F)c1cccs1
10.3 | O/C(=C/c1ccncc1)c1ccccc1
6.68 | CC(C)c1cccc(=O)c(O)c1Br
4.14 | O=C(O)/C=C/CCl
10.5 | O=C([O-])/C=C/C([O-])=C/C(=O)CC(=O)[O-]
3.43 | C[N+]1(CCC(=O)O)CCCCC1
5.9 | O=c1cccccc1S
1.76 | O=C1NS(=O)(=O)c2ccccc21
-0.35 | Oc1cn[nH+]c2ccccc12
2.75 | CC(C)CS(=O)O
10.4 | CC/C=C/Cc1nccn1[C@H](C(=O)[O-])C(C)(C)S
10.8 | COc1ccc(/C=N/O)cc1OC
9.85 | Cc1nnc(C)n1N
4.2 | CC1(C)C(=O)CC(=O)CC1=O
4.23 | CSc1ccc(C(=O)O)cc1
8.45 | Oc1cccc2cnccc12
10.1 | c1ccc(CCNc2ncnc3nc[nH]c23)cc1
6.8 | O=c1oc2cc(O)ccc2cc1-c1nc2cc(Cl)ccc2o1
4.12 | [NH3+]CCC#CC#CCCC(=O)O
11.6 | O=C([O-])/C(=N/O)c1ccccc1

Same assay, conditions: basic group

SMILES | pKa
O=C(CCNCCC(=O)c1ccccc1)c1ccccc1 | 8.69
CCOCCNc1ccc(C)cc1 | 4.6
Cc1cc([N+](=O)[O-])ccc1NN=C(C#N)C#N | -0.74
NCCC[NH3+] | 8.77
CCP(=S)(CC)C(=S)NN | 5.6
CC1(C)CC(NCCO)CC(C)(C)N1 | 10.5
COc1ccc2c(c1)NCCN2 | 5.26
CN1C[C@@H](C(=O)[O-])C[C@@]2(O)c3cccc4[nH]cc(c34)C[C@H]12 | 9
Nc1cc([N+](=O)[O-])c2ccccc2c1 | 2.62
CN1CC1 | 7.86
CC(C)(C)N1NC2CCC1C21CC1 (configuration not stated) | 9.33
CCCC(=O)SCCN(C)C | 8.32
c1c[nH+]ccn1 | -5.55
NCCOCCO | 9.43
CSc1nc2cncnc2n1C | 2.98
Cc1cc(-c2cc(C)n[nH]2)[nH]n1 | 2.8
N[C@H]1CCCC[C@@H]1C(=O)Oc1ccc([N+](=O)[O-])cc1 | 8.57
Cc1cc(C)cc(N)c1 | 4.81
CCC1CCCN1C (configuration not stated) | 9.78
C[NH+](C)Cc1cnc2ccc(-c3ccccc3)nn12 | 2.99
Clc1ccc(-c2cnc(-c3ccccc3)o2)cc1 | 0.7
C=C1CC1C[C@H](N)C(=O)[O-] (some centres not stated) | 9.37
O=C(/C=C/c1c[nH]cn1)OCCCl | 4.8
N[C@H]1CCCCC[C@@H]1O | 9.35
O=C([O-])c1nc2cc(Cl)ccc2[nH]1 | 4.3
O=P([O-])([O-])c1cn2c(n1)[C@@H](O)[C@H](O)[C@@H](O)[C@@H]2CO | 7.69

SMILES | pKa
COCCNc1cccc(OC)c1 | 3.7
CN(C)c1ncc(Br)s1 | 3.66
CCc1cncc(C)c1 | 5.2
[NH3+]CCCCc1cccnc1 | 5.52
CCCN(CC)c1ccccc1 | 6.39
COc1ccc(C2CCC[NH+]2C)cn1 (configuration not stated) | 1.34
[S-]c1ncccn1 | 7.2
Cc1ccccc1/C(=N\CCC[NH+](C)C)c1ccccc1Cl | 3.37
CNc1cc[n+](C)c([O-])n1 | 4.47
C[NH2+]CCNCCN | 9.57
Oc1ccc(Cl)c2cccnc12 | 3.68
C[Se]CCN | 9.53
CCCCCCCCCCN(CCO)CC(O)CC (configuration not stated) | 7.2
N#CC(C#N)=NNc1ccc(C(=O)CCl)cc1 | -0.76
Nc1ccncc1Br | 7.15
CCN(C)c1ccccc1 | 6.02
NCCc1ccccc1 | 9.89
[NH3+]CCc1ccncc1 | 4.98
Cc1nc2c(n1C)C(=O)c1ncnc([O-])c1C2=O | 6.15
Nc1nc(N)c2[nH]c(N)[nH+]c2n1 | 2.41
CN(C)CCBr | 7.55
O=C([O-])[C@@H]1O[C@H](Oc2ccc3ncccc3c2)[C@@H](O)[C@H](O)[C@H]1O | 5
Nc1ccc2ncccc2c1 | 5.63
CCNCC(=O)c1ccc(O)cc1 | 7.77
NC(CO)CO | 8.63

Next, values leading:

pKa | SMILES
-0.4 | c1ccc(N(CC2CO2)CC2CO2)cc1 (configuration not stated)
9.43 | CN=C1CCCCC1
10 | CC(C)(N)CN
5.05 | Nc1cc2ccccc2cn1
4.03 | Cc1ccccc1/C(N)=N/O
5.62 | CCN(O)CC
13.9 | C/N=C(/NC)N(C)C
6.23 | CC(=O)C(CN1CCOCC1)c1ccccc1 (configuration not stated)
10.8 | CCCCCC(C)(C)N
8.62 | CC(CC(O)(c1ccccc1)c1ccccc1)N1CCCCC1 (configuration not stated)
5.8 | Cc1cccc(C(=O)[O-])n1
10.7 | CCN(CC)Cc1cc(Br)ccc1[O-]
8.11 | SCCNCCc1ccccc1
3.49 | CCCCc1nc(N)c2ncsc2n1
4.31 | CNc1ncnc2nc[nH]c12
5.57 | OCCCc1cccnc1
3.95 | c1cnc2nc[nH]c2c1
-0.96 | NC(N)=S
2.23 | Cc1cc(-n2nc(C)cc2C)[nH]n1
10.6 | CCCCCCCCCCCCCCN
3.3 | CN(C)c1ccc(SC#N)cc1

pKa | SMILES
9.5 | CCOc1ccc2nc(/C=C/C=C/c3ccccc3)cc(N)c2c1
4.32 | Cn1ncc2c(N)ncnc21
9.23 | C=CC(=O)NCCCN(C)C
5.9 | CCCNC(=O)[C@H](Cc1c[nH]c[nH+]1)NC(=O)c1cccc(CNCC[NH3+])n1
8.73 | CC(C)CSCCN
4.93 | Ic1cccc(C2NCCS2)c1 (configuration not stated)
0.27 | [NH3+]c1ccc(-c2cnc(-c3ccc(Cl)cc3)o2)cc1
6.21 | O/C(=C/c1ccncc1)c1ccccc1
7.5 | Cc1c2ccncc2cc2c1[nH]c1ccncc12
7.94 | C1CC2CC1NN2
3.72 | COc1ccc(NCO)cc1
9.76 | CN(C)CCCO
7.2 | CC/C=C/Cc1nccn1[C@H](C(=O)[O-])C(C)(C)S
10.3 | C[Si](C)(CN)O[Si](C)(C)CN
-7.83 | CC[NH+](CC)CCCC(C)Nc1cc[nH+]c2ccc(OC)cc12 (configuration not stated)
1 | O=C1Nc2cncnc2N/C1=C1/Nc2ncncc2NC1=O
5.4 | Oc1cccc2cnccc12
-3.77 | CCSC(=O)c1ccc(OC)cc1
4.2 | c1ccc(CCNc2ncnc3nc[nH]c23)cc1
8.74 | COc1ccc(C=O)cc1C(=O)N[C@@H]1C[C@H]2CC[C@@H](C1)N2Cc1ccccc1
2.31 | Cn1cncn1
